What all share (format): in vivo
Experiment [1] relates to Ipomoea hederaceae (IPOHE). As to the kind of experiment: Post-emergence biological efficacy, glasshouse, 500 or 1000 g/ha, evaluated after 13 days (100=total damage to plant; 0=no damage to plant). The settings on record: Ipomoea, 312 h, rate 1,000 g/ha, read-out: Percentage damage caused to weed species, post-emergence, IPOHE. A digest of the protocol: (§1)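 Sow seeds in standard potting soil. Treat after emergence. Keep treated plants in the glasshouse at 24° C. by day and 16° C. by night, with a 14-hour photoperiod, 65% humidity and two waterings daily.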

Experiment [2] concerns Setaria faberi (SETFA). The experiment is described as above. The settings on record: Setaria faberi, 312 h, rate 1,000 g/ha, read-out: Percentage damage caused to weed species, post-emergence, SETFA. A digest of the protocol: as §1
The test system of experiment [3] is Solanum nigrum (SOLNI). The description is as above. The settings on record: Solanum nigrum, 312 h, rate 1,000 g/ha, read-out: Percentage damage caused to weed species, post-emergence, SOLNI. A digest of the protocol: as §1
Experiment [4] concerns Amaranthus retroflexus (AMARE). The description is as above. Conditions: Amaranthus retroflexus, 312 h, rate 1,000 g/ha, read-out: Percentage damage caused to weed species, post-emergence, AMARE. A digest of the protocol:
as §1

In experiment [5] the test system is Alopecurus myosuroides (ALOMY). The description is as above. The settings on record: Alopecurus myosuroides, 312 h, rate 1,000 g/ha, read-out: Percentage damage caused to weed species, post-emergence, ALOMY. A digest of the protocol: as §1
In experiment [6] the test system is Echinochloa crusgaffi (ECHCG). The experiment is described as above. Conditions: Echinochloa, 312 h, rate 1,000 g/ha, read-out: Percentage damage caused to weed species, post-emergence, ECHCG. Summed up: as §1
For experiment [7], the system named is Ipomoea hederaceae (IPOHE). The experiment in a line: Pre-emergence biological efficacy, glasshouse, 1000 g/ha, evaluated after 13 days (100=total damage to plant; 0=no damage to plant). The settings on record: Ipomoea, 312 h, rate 1,000 g/ha, read-out: Percentage damage caused to weed species, pre-emergence, IPOHE. Summed up: (§2)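 Test species are sown into pots of standard soil. Plants then grow in the glasshouse under controlled conditions (24/16° C. day/night, 14 hours light, 65% humidity) and receive water twice a day.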

Experiment [8] relates to Setaria faberi (SETFA). Described as above. The settings on record: Setaria faberi, 312 h, rate 1,000 g/ha, read-out: Percentage damage caused to weed species, pre-emergence, SETFA. A digest of the protocol:
as §2

The test system of experiment [9] is Solanum nigrum (SOLNI). The experiment is described as above. The settings on record: Solanum nigrum, 312 h, rate 1,000 g/ha, read-out: Percentage damage caused to weed species, pre-emergence, SOLNI. A digest of the protocol:
as §2

For experiment [10], the system named is Echinochloa crus-galli (ECHCG). Described as above. Conditions: Echinochloa crus-galli, 312 h, rate 1,000 g/ha, read-out: Percentage damage caused to weed species, pre-emergence, ECHCG. A digest of the protocol:
as §2

The subject of experiment [11] is Amaranthus retroflexus (AMARE). Described as above. The settings on record: Amaranthus retroflexus, 312 h, rate 1,000 g/ha, read-out: Percentage damage caused to weed species, pre-emergence, AMARE. A digest of the protocol:
as §2

Experiment [12] relates to Alopecurus myosuroides (ALOMY). The description is as above. The settings on record: Alopecurus myosuroides, 312 h, rate 1,000 g/ha, read-out: Percentage damage caused to weed species, pre-emergence, ALOMY. A digest of the protocol:
as §2

`COc1c(Cl)ccc(-c2nc(C(=O)O)c3c(C)cn(C(C)c4ccccc4)c3n2)c1F` (stereo not drawn) [Compound 7-63, 4-Carboxy-2-(4-chloro-2-fluoro-3-methoxyphenyl)-5-methyl-7-(1-phenyl-ethyl)-7H-pyrrolo[2,3-d]pyrimidine]: the pest or weed control at 1000 g/ha in [1] came out at 10%; in the experiment on Setaria faberi (SETFA) [2], 10%; in the experiment with Solanum nigrum (SOLNI) [3], 60%; in experiment [4] it was 20%; in [5], 0%; in [6] it was 0%. Moreover, the pest or weed control at 1000 g/ha (in [7]; in the experiment with Setaria faberi (SETFA) [8]; with Solanum nigrum (SOLNI) [9]; in experiment [10]; in [11]; in experiment [12]) was 0% each time.
For the molecule `CCCCCCCCOC(=O)c1nc(-c2ccc(Cl)c(OC)c2F)nc2[nH]cc(C)c12` [Compound 1-77, 2-(4-Chloro-2-fluoro-3-methoxyphenyl)-5-methyl-4-(n-octyloxycarbonyl)-7H-pyrrolo[2,3-d]pyrimidine], the pest or weed control at 1000 g/ha in experiment [1] is 40%; with Setaria faberi (SETFA) [2], 10%; in the experiment with Solanum nigrum (SOLNI) [3], 70%; in [4], 10%; in experiment [5], 0%; in experiment [6] it was 0%. Moreover, the pest or weed control at 1000 g/ha in experiment [7] turned out to be 0%; in the experiment with Setaria faberi (SETFA) [8], 10%; in the experiment with Solanum nigrum (SOLNI) [9], 10%; in experiment [10], 0%; in experiment [11] it was 0%; in experiment [12] it was 0%.
`COC(=O)c1nc(-c2ccc(Cl)c(OC)c2F)nc2nc3ccccc3nc12` [Compound 125-76, 2-(4-chloro-2-fluoro-3-methoxyphenyl)-4-methoxycarbonyl-benzo[g]pteridine]: the pest or weed control at 1000 g/ha in experiment [1] stood at 80%; with Setaria faberi (SETFA) [2], 80%; in the experiment on Solanum nigrum (SOLNI) [3] it was 90%; in experiment [4], 100%; in experiment [5] it was 10%; in experiment [6], 70%. Moreover, the pest or weed control at 1000 g/ha in [7] was 60%; in the experiment on Setaria faberi (SETFA) [8], 20%; with Solanum nigrum (SOLNI) [9], 70%; in experiment [10] it was 20%; in experiment [11], 80%; in experiment [12], 10%.

These data come from patent publication US20120202690A1, “HERBICIDAL COMPOUNDS” (SYNGENTA LIMITED, priority 2009, published 2012).
